Test results: article PMC11353420, “Anti-Inflammatory, Cytotoxic, and Genotoxic Effects of Soybean Oligopeptides Conjugated with Mannose” (Foods, 2024)
Several values for one entry are separate records, joined by “and”; a condition that tells them apart may be missing. Equal values may be shown once. Blank lines part the entries; values can stand above or below the compound they belong to.

Columns and labels:
[1] = test system: Salmonella typhimurium strain TA100; experiment: Salmonella mutation assay (Ames test), TA100; assay type: cell-based; conditions: positive mutagen
Description: (§1) Overnight bacterial cultures were mixed with various doses of test compounds with (+S9) or without (−S9) and incubated at 37 °C for 20 min. The top agar was added and then poured onto a plate of minimal glucose agar. The plates were incubated at 37 °C for 48 h. The number of revertant colonies was counted and the mutagenic index (MI) was calculated. 2-aminoanthracene (2-AA) and 2-(2-furyl)-3-(5-nitro-2-furyl)-acrylamide (AF-2) were used as positive mutagens in the presence and absence of S9.

[2] = test system: Salmonella typhimurium strain TA98; experiment: Salmonella mutation assay (Ames test), TA98; assay type: cell-based; conditions: positive mutagen
Description: as §1

3T3-L1 Pre-adipocyte = experiment: SRB cytotoxicity assay, 3T3-L1 pre-adipocyte; assay type: cell-based, murine
Excerpt: (§2) HEK293 (Human embryonic kidney cell line), HepG2 (Human liver carcinoma cell line), LX-2 (Human hepatic stellate cell line), and 3T3-L1 (Murine preadipocyte cell line) cells were obtained from the American Type Culture Collection (ATCC), Bethesda, MD, USA.

iNOS = iNOS protein level by immunoblotting in LPS-treated RAW 264.7; assay type: cell-based, murine; conditions: 100, 200, 400 µg/mL, LPS 1 µg/mL 24 h
Description: (§3) RAW 264.7 macrophage cells were pretreated with various concentrations of the oligopeptide and its conjugated forms (100, 200, 400 µg/mL) for an hour and then incubated with LPS (1 µg/mL) for a further 24 h (at 37 °C in a 5% CO2 humidified atmosphere). The cells were then collected to investigate the iNOS and COX-2 protein levels. Cell lysate was prepared to obtain the protein samples. The samples were subjected to 10% sodium dodecyl sulfate polyacrylamide gel electrophoresis (SDS-PAGE). The separated proteins were electrically transferred to a nitrocellulose membrane. The target proteins were probed with specific antibodies, including anti-COX-2 antibody (Cell signaling, Danvers, MA, USA), anti-iNOS antibody (Merck, Rahway, NJ, USA), and anti-β-actin antibody (Sigma, St. Louis, MO, USA). Protein detection was performed using a chemiluminescence reagent (Bio-Rad Laboratories, Watford, UK).

IL-6 = IL-6 secretion by ELISA in LPS-treated RAW 264.7; assay type: cell-based, murine; conditions: 100, 200, 400 µg/mL, LPS 1 µg/mL 24 h
Description: (§4) RAW 264.7 macrophage cells were pretreated with various concentrations of the oligopeptide and its conjugated forms (100, 200, 400 µg/mL) for an hour and then incubated with LPS (1 µg/mL) for further 24 h at 37 °C in a 5% CO2 humidified atmosphere. Then, a sandwich Enzyme Link Immuno-Sorbent Assay was carried out in accordance with the manufacturer’s protocols (BioLegend ELISA MAXTM Deluxe Set, San Diego, CA, USA) to measure TNF-α or IL-6 protein levels in the condition medium.

[3] = test system: RAW 264.7 murine macrophage cell line; experiment: SRB cytotoxicity assay, RAW 264.7
Description: The cells were maintained in a 5% CO2 humidified atmosphere (CO2 incubator, Thermo Scientific, Waltham, MA, USA) at 37 °C and sub-cultured every 3 days.
(§5) The cytotoxicity of the oligopeptide and its conjugated forms on HepG2, HEK293, LX-2, and RAW 264.7 cells, pre- and mature 3T3-L1 adipocytes, and hPBMCs was analyzed by a sulforhodamine (SRB) assay to obtain their non-toxic concentration for further experiments and as screening data for their in vitro safety. The cells were plated for 12 h in 96-well plates and then treated with the oligopeptide and its conjugated sugar at a concentration of 0–1000 µg/mL for 48 h. Dimethyl sulfoxide (DMSO) was used as a vehicle control (the untreated control). At the indicated time, the cells were then fixed and subjected to an SRB assay. The absorbance was measured at 510 nm by spectrophotometry (Gen5, BioTek, Winooski, VT, USA), and the cell viability was calculated as the ratio of the treatment versus untreated control. The data are represented as the mean ± standard deviation of three replicates and are expressed relative to the untreated control. The percentage of cell survival was calculated as follows:% cell survival = (Abs_extract/Abs_control) × 100

[4] = test system: LX-2 (Human hepatic stellate cell line); experiment: SRB cytotoxicity assay, LX-2; assay type: cell-based
Excerpt: as §2

[5] = test system: HepG2 (Human liver carcinoma cell line); experiment: SRB cytotoxicity assay, HepG2; assay type: cell-based
Excerpt: as §2

[6] = test system: HEK293 (Human embryonic kidney cell line); experiment: SRB cytotoxicity assay, HEK293; assay type: cell-based
Excerpt: as §2

COX-2 = COX-2 protein level by immunoblotting in LPS-treated RAW 264.7; assay type: cell-based, murine; conditions: 100, 200, 400 µg/mL, LPS 1 µg/mL 24 h
Description: as §3

TNF-α = TNF-α secretion by ELISA in LPS-treated RAW 264.7; assay type: cell-based, murine; conditions: 400 µg/mL, LPS-stimulated cells
Description: as §4

[7] = test system: NO production in LPS-treated RAW 264.7 macrophages; experiment: LPS-induced nitric oxide (NO)/nitrite production, Griess reaction; assay type: cell-based, murine; conditions: 100, 200, 400 µg/mL pretreatment 1 h, LPS 1 µg/mL 24 h
Description: To screen the anti-inflammation ability of the compounds, the nitrite level in the cultured medium of the treated cells was determined by the Griess reaction. RAW 264.7 macrophage cells were pretreated with various concentrations of the oligopeptide and its conjugated forms (100, 200, 400 µg/mL) for an hour and then incubated with LPS (1 µg/mL) for further 24 h at 37 °C in a 5% CO2 humidified atmosphere. The culture supernatant was collected for the Griess reagent assay as previous described. The NO production was calculated by comparison with LPS-treated controls.

3T3-L1 Mature-adipocytes = experiment: SRB cytotoxicity assay, 3T3-L1 mature adipocytes; assay type: cell-based, murine
Description: The pre-adipocyte 3T3-L1 cell line was differentiated to become mature adipocytes by culturing the cells to 100% confluence in 10% calf serum DMEM (CS medium), as Day 0 in a 96 well-plate. After post-confluence, the cells were incubated with the induction medium as a differentiation initiation medium (DMEM […] 1 μM DEX, 0.5 mM IBMX, 167 nM insulin, and 10% FBS) for 3 days (Days 1–3). After that, cells were cultured in a differentiation medium as an adipogenic differentiation medium (differentiation media: DMEM containing 167 nM insulin and 10% FBS) for 3 days (Days 4–6). Finally, maturation was induced in an induced-lipid accumulation medium (maturation media: DMEM containing 167 nM insulin and 10% FBS) for 6 days (Days 7–12). The mature adipocytes were then used for toxicity testing.
as §5

Drosophila melanogaster = experiment: Somatic mutation and recombination test (SMART, wing spot test); assay type: in vivo; parameters: key to Statistical diagnosis vs DI (negative control), Small Single (1–2 Cells) / Statistical diagnosis vs DI (negative control), Large Single (>2 Cells) / Statistical diagnosis vs DI (negative control), Twin / Statistical diagnosis vs DI (negative control), Total Spots: + = positive; − = negative; i = inconclusive; conditions: 20 mM, positive control
Description: In brief, two strains of fruit flies, including mwh/mwh and ORR; flr^3/In(3LR) TM3, ri p^p sep l(3)89Aa bx^34e e Bd^S, were mated. […] After hatching, forty round wings were collected and analyzed for mutant spots (single, large, and twin spots). The statistical analysis for the wing spot test was performed as previously described. The Drosophila study was approved by the Institute of Nutrition—Mahidol University Institutional Animal Care and Use Committee (INMU-IACUC) (COA. No. INMU-IACUC 2023/01).

[8] = test system: human red blood cells (RBCs); experiment: Hemolysis assay; assay type: cell-based; conditions: 0.05%, positive control
Excerpt: As described by Karinchai et al., human peripheral blood mononuclear cells (PBMCs) and red blood cells (RBCs) were isolated from human blood samples [41]. Human blood samples of healthy subjects obtained from Maharaj Hospital, Chiang Mai, Thailand, were anonymized and kept in a heparinized tube by the laboratory. RBCs were collected and used to determined hemolysis induction by a hemolysis assay. Ficoll-Hypaque solution was used to isolate PBMCs, as described in the manufacturer’s instructions. A certificate of exemption by the Research Ethics Committee of the Faculty of Medicine, Chiang Mai University (No. EXEMPTION 8989/2022), was granted. Consent to participate was not applicable as all data were anonymized. All methods were carried out in accordance with relevant guidelines and regulations.
The hemolytic effect of the oligopeptide and its conjugated forms was determined by hemolysis assay. Briefly, the 5% RBCs suspension was mixed with various concentrations of the samples and further incubated at 37 °C for 3 h. The hemolysis induction by the compounds was measured as described previously. The hemolytic effect of each compound was interpreted using the following guidelines: 0–10% hemolysis is non-hemolysis, 10–25% hemolysis is slight hemolysis induction, and >25% hemolysis is high hemolysis induction.

Compound: Nc1ccc2cc3ccccc3cc2c1 [2-AA, 2-aminoanthracene]
His^+ Revertant Colonies per Plate ([1]; TA100, +S9, 0.5 µg per plate): 599.7 ± 8.7 | His^+ Revertant Colonies per Plate ([2]; TA98, +S9, 0.5 µg per plate): 325.8 ± 16.2

Compound: NC(=O)C(=Cc1ccc([N+](=O)[O-])o1)c1ccco1 [AF-2, 2-(2-furyl)-3-(5-nitro-2-furyl)-acrylamide]
His^+ Revertant Colonies per Plate ([1]; TA100, −S9, 0.01 µg per plate): 527.3 ± 15.0 | His^+ Revertant Colonies per Plate ([2]; TA98, −S9, 0.1 µg per plate): 293.0 ± 10.3

Compound: O=C(CO)[C@H](O)[C@H](O)[C@H](O)CO [AL, D-allulose]
IC20 (3T3-L1 Pre-adipocyte): >1000 mg/L | IC50 (3T3-L1 Pre-adipocyte; 3T3-L1 Pre-adipocyte, 48 h, SRB): >1000 mg/L | effect on iNOS protein level (iNOS): did not affect | effect on level of IL-6 (IL-6): did not alter | IC20 [3]: >1000 mg/L | IC50 ([3]; RAW 264.7, 48 h, SRB): >1000 mg/L | IC20 [4]: >1000 mg/L | IC50 ([4]; LX-2, 48 h, SRB): >1000 mg/L | IC20 [5]: >1000 mg/L | IC50 ([5]; HepG2, 48 h, SRB): >1000 mg/L | IC20 [6]: >1000 mg/L | IC50 ([6]; HEK293, 48 h, SRB): >1000 mg/L | effect on COX-2 protein level (COX-2): did not affect | effect on TNF-α level (TNF-α): significantly decreased | inhibition of LPS-induced NO production [7]: did not inhibit | IC20 (3T3-L1 Mature-adipocytes): >1000 mg/L | IC50 (3T3-L1 Mature-adipocytes; 3T3-L1 Mature-adipocytes, 48 h, SRB): >1000 mg/L

Statistical diagnosis vs DI (negative control), Large Single (>2 Cells) (Drosophila melanogaster): + | Statistical diagnosis vs DI (negative control), Small Single (1–2 Cells) (Drosophila melanogaster): + | Statistical diagnosis vs DI (negative control), Total Spots (Drosophila melanogaster): + | Statistical diagnosis vs DI (negative control), Twin (Drosophila melanogaster): + | total mutant spot, fold greater than the negative control (Drosophila melanogaster): 15 fold | Frequency of Mutant Spots per Individual (Number of Spots), Large Single (>2 Cells) (Drosophila melanogaster; 40 wings): 3.40 (136) | Frequency of Mutant Spots per Individual (Number of Spots), Small Single (1–2 Cells) (Drosophila melanogaster; 40 wings): 6.10 (244) | Frequency of Mutant Spots per Individual (Number of Spots), Total Spots (Drosophila melanogaster; 40 wings): 10.18 and 10.18 (407) | Frequency of Mutant Spots per Individual (Number of Spots), Twin (Drosophila melanogaster; 40 wings): 0.68 (27)
Compound: CCOC(N)=O [urethane]

Compound: triton x-100
% Hemolysis (n = 5) [8]: 100 ± 0.00%
